Results as given in paper PMC7793975, “Design and Optimization of Quinazoline Derivatives: New Non-nucleoside Inhibitors of Bovine Viral Diarrhea Virus” (Frontiers in Chemistry, 2020).
In brackets after ≈: the same amount, converted by molar mass. Several values for one entry are separate records, joined by “and”; a condition that tells them apart may be missing. Equal entries are not always repeated. Where two headings read alike, the source gives them in different places.

Key:
[1] = Cytotoxicity assay (MTS/PMS); settings: bovine, MDBK cells
Experimental: (§1) (A) Cytotoxicity. Sub-confluent MDBK cell monolayers grown in 96-well plates were treated with 2-fold serial dilutions of each compound in IM. Mock-treated cells were added as control. Cells were incubated and allowed to proliferate for 3 days at 37°C and 5% CO2. Cell viability was then determined by the MTS/PMS method. (B) Antiviral activity. Sub-confluent MDBK cell monolayers grown in 96-well plates were infected with BVDV NADL (MOI = 0.01) and treated with different concentrations of the compounds. Mock-infected cells and mock-treated infected cells were included as controls in each plate. After 3 days at 37°C and 5% CO2, cell viability was determined by the MTS/PMS method, and the percentage of the viral CPE inhibition was calculated.
(§2) MDBK cells were seeded in 96-well plates at a density of 1 × 10^4 cells per well in GM. After 24 h, the culture medium was removed, monolayers were washed twice with phosphate-buffered saline (PBS), and serial dilutions of the test compounds were made in E-MEM supplemented with donor horse serum (DHS, Gibco, IM) and added. Cultures were incubated for 3 days at 37°C, and then, cell viability was determined by the MTS/PMS method according to the manufacturer's instructions (Promega). After incubation for 3 h at 37°C and 5% CO2, the absorbance was determined at 490 nm. The 50% cytotoxic concentration (CC50) was defined as the concentration of compound that inhibited the proliferation of exponentially growing cells by 50% and was calculated by interpolation in dose–response curves.

MDBK cells = assay: Cytotoxicity assay (MTS/PMS); settings: MDBK cells, 3 days
Experimental: as §1, §2

BVDV type 1 NADL strain = assay: Anti-BVDV assay (CPE reduction, MTS/PMS); assay type: cell-based, Bovine viral diarrhea virus; settings: for EC50: BVDV NADL in MDBK cells, MOI 0.01, 3 days, reduces viral CPE by 50%, Inactive: <50% of inhibition of CPE at MNCC
Experimental: (A) Cytotoxicity. […] Mock-treated cells were added as control. […] (B) Antiviral activity.
Madin-Darby bovine kidney cells (MDBK NBL-1; ATCC CCL-22) were grown in Eagle's Minimum Essential Medium (E-MEM), supplemented with 10% biotechnological fetal bovine serum (Internegocios, Argentina) (GM) at 37°C and 5% CO2. The BVDV type 1 NADL strain, cytopathic biotype (BVDV-1, ATCC VR 534), was provided by Dr. Laura Weber (INTA Castelar, Argentina).
Then, serial dilutions of the test compounds in IM were added. […] After incubation for 3 days at 37°C and 5% CO2, the culture medium was removed, cell monolayers were washed twice with PBS, and IM supplemented with MTS/PMS was added to each well. The absorbance of each well was read at 490 nm. The EC50 was defined as the concentration of compound that prevented 50% of the virus-induced CPE and was calculated by interpolation in dose–response curves.

[2] = Shake-flask solubility (UV-Vis); assay type: physicochemical; settings: thermodynamic from solid
Experimental: Verapamil was used as internal control. More detailed information is available in the Supplementary Material.
(§3) UV-Visible spectrums were measured with a UV3600 UV -Vis-NIR spectrophotometer in a range of 500 -200 nm using a quartz cuvette. The measurements were determined at λ values corresponding to the maximum of absorption . Baselines were determined with MeOH :media (1:1) mixture . Sample concentrations were determined using maximum absorption value s. All compounds were tested in […]
(§4) Preparation of calibration curve
(§5) From this solution, different volumes were combined with MeOH:media (1:1) mixture to obtain concentrations between 2.0 – 40.0 µg/mL. […]
(§6) intestinal fluid (SIF, pH 6.8) or phosphate buffered saline solution (PBS, pH 7.4) was added. The vial contents were mixed at 1500 rpm at 37 °C for 24 h and then incubated at 37 °C for 24 h without stirring. Samples were filtered (0.2 μm, Sterile Acrodisc® 13, GelmanScience) before analysis.
(§7) The filtered solutions were diluted in MeOH:media (1:1) mixture to achieved final concentrations of 0.01 (SGF), 0.02 (SIF) and 0.04 µg/mL (PBS). Verapamil and pr ocaine were used as internal […]
(§8) DMSO and water/DMSO (98:2) stability […]
(§9) were measured in a range of 500-200 nm using a quartz cuvette and the absorption was determined at 331 nm. Samples with 1.0 mg of 1.9 in 1 mL of DMSO or water/DMSO (98:2) mixture were prepared, and they were kept at room temperature without stir ring. Independent samples were measured every 1 week over 5 weeks. For the measurements, solutions were diluted at 1/100 in DMSO and 1/50 in water:DMSO (98:2) mixture. The values in the chart are the mean of three

[3] = Stability in SGF, SIF, PBS (HPLC-MS); assay type: physicochemical
Experimental: Stability assays were performed according to the procedure described in a previous work (Leal et al., [2019]). Samples were taken at different incubation times and analyzed by high-performance liquid chromatography–mass spectrometry (HPLC–MS) using a Waters Alliance e2695 system (Waters Corporation, Milford, MA, USA) fitted with a Phenomenex Kinetex® XB-C18 column (150 × 4.6 mm, 5-μm particle size, Phenomenex Inc., Torrance, CA, USA) coupled to a Waters SQD2 single quadrupole mass spectrometer with an ESI source. A gradient elution was applied using 40% water and 0.1% acetic acid (mobile phase A) and 40% methanol (mobile phase B), with the following program: 0–3 min 40% B; 3–7 min 40–90% B; and 7–20 min 90% B. The flow rate was kept constant at 0.35 ml min^−1. After each sample injection, the gradient was returned to its initial conditions in 16 min. The injection volume was 5 μl. The column temperature was 35°C. The mass spectrometer was operated in positive ion mode with a probe capillary voltage of 2.5 kV. The sampling cone voltage was set to 35.0 V. The source and desolvation gas temperatures were set at 150 and 350°C, respectively. The nitrogen gas desolvation flow rate was 600 L h^−1, and the cone gas flow rate was 10 L h^−1. The mass spectrometer was calibrated across the range of m/z 20–2,023 with a sodium and cesium iodide solution. Data were acquired in scan mode with a scan duration of 0.2 s and in SIR mode with unit resolution. Data acquisition and processing were carried out using MassLynx software, version 4.1. […]
(§10) Compound 1.9 was selected to perform in vitro physicochemical studies (solubility and stability). The solubility (S) was evaluated at SGF (pH 1.2), SIF (pH 6.8), and PBS solution (pH 7.4), employing the shake-flask method with UV spectroscopy (Bollini et al., [2013]). […] The stability was evaluated by calculating the percentage of remaining drug (HPLC–MS) after contact with different incubation media (SIF, SGF, PBS, mouse, and bovine plasma) for 120 min. […] Neither compound modification nor degradation was detected after the different incubation periods. […]

[4] = Mouse plasma stability (HPLC-MS); assay type: in vitro ADME; settings: mouse/murine plasma, 120 min incubation; read-out: Stability t1/2 Mouse/murine plasma
Experimental: (§11) Stability assays were performed according to the procedure described in a previous work (Leal et al., [2019]). Samples were taken at different incubation times and analyzed by high-performance liquid chromatography–mass spectrometry (HPLC–MS) using a Waters Alliance e2695 system (Waters Corporation, Milford, MA, USA) fitted with a Phenomenex Kinetex® XB-C18 column (150 × 4.6 mm, 5-μm particle size, Phenomenex Inc., Torrance, CA, USA) coupled to a Waters SQD2 single quadrupole mass spectrometer with an ESI source. A gradient elution was applied using 40% water and 0.1% acetic acid (mobile phase A) and 40% methanol (mobile phase B), with the following program: 0–3 min 40% B; 3–7 min 40–90% B; and 7–20 min 90% B. The flow rate was kept constant at 0.35 ml min^−1. […]
as §10

[5] = Bovine plasma stability (HPLC-MS); assay type: in vitro ADME; settings: 120 min incubation, read-out: Stability t1/2 Bovine plasma
Experimental: as §11, §10

[6] = DMSO and water/DMSO (98:2) stability (UV-Vis); assay type: physicochemical; settings: room temperature
Experimental: as §3, §4, §5, §6, §7, §8
as §9, with “For the measurements, solutions were diluted at 1/100 in DMSO and 1/50 in water:DMSO (98:2) mixture. The values in the chart are the mean of three” left out

## OCCN1CCN(c2nc(-c3ccccc3)nc3ccccc23)CC1 [Compound 1.9, 2-[4-(2-Phenylquinazolin-4-yl)piperazin-1-yl]ethanol]
[1]
  CC50 at 3 days: 32 ± 1.9 µM
MDBK cells
  MNCC (maximum non-cytotoxic concentration): 12.5 µM and 12.5 ± 2.4 µM
BVDV type 1 NADL strain; read-out: EC50
  EC50: 1.8 ± 0.4 µM
BVDV type 1 NADL strain; Bovine viral diarrhea virus isolates and strains, MDBK, 72 h
  EC50: 1.7 ± 0.4 µM
BVDV type 1 NADL strain; in vitro selectivity index, MDBK cells / BVDV NADL
  SI (CC50/EC50): 17.8
[2]; phosphate buffered saline (PBS), aqueous buffer, PBS pH 7.4, 37 °C, read-out: Solubility PBS
  solubility at 24 h: 300 ± 100 µg/mL (≈ 897 µM)
[2]; simulated gastric fluid (SGF), simulated gastric fluid pH 1.2, 37 °C, read-out: Solubility SGF
  solubility at 24 h: 8700 ± 400 µg/mL (≈ 26000 µM)
[2]; simulated intestinal fluid (SIF), fassgf or other biorelevant, simulated intestinal fluid pH 6.8, 37 °C, read-out: Solubility SIF
  solubility at 24 h: 400 ± 200 µg/mL (≈ 1200 µM)
[3]; PBS pH 7.4, 120 min incubation, read-out: Stability t1/2 PBS
  half-life: > 2 h
[3]; simulated gastric fluid (SGF), SGF pH 1.2, 120 min incubation, read-out: Stability t1/2 SGF
  half-life: > 2 h
[3]; simulated intestinal fluid (SIF), SIF pH 6.8, 120 min incubation, read-out: Stability t1/2 SIF
  half-life: > 2 h
[4]
  half-life: > 2 h
[5]
  half-life: > 2 h
[6]; 1.0 mg/mL in DMSO
  time stable in DMSO: ≥ 5 weeks
[6]; 1.0 mg/mL in water/DMSO (98:2)
  time stable in water/DMSO (98:2): ≥ 5 weeks
